Assay results taken from patent US20040033899A1, “5[(pyrazol-4-yl)carbonyl]benzazolone as herbicide” (priority 2000, published 2004).

Tests used:
[1] = tested on: BRAPL; test: greenhouse post-emergence herbicidal test; assay type: in vivo, marmelade grass
Description: (§1) The seeds of the test plants were sown separately for each species. For the post-emergence treatment, the test plants were first grown to a plant height of from 3 to 15 cm, depending on the plant habit, and only then treated with the active compounds which had been suspended or emulsified in water. To this end, the test plants were either sown directly and grown in the same containers, or they were first grown separately as seedlings and transplanted into the test containers a few days prior to treatment. The rate of application for the post-emergence treatment was 31.3, 62.5, 125 and/or 250 g of a.s. (active substance) /ha. Depending on the species, the plants were kept at from 10 to 25° C., or 20-35° C., respectively. The test period extended over 2 to 4 weeks. During this time, the plants were tended, and their response to the individual treatments was evaluated. Evaluation was carried out using a scale of from 0 to 100. 100 means no emergence of the plants, or complete destruction of at least the aerial parts, and 0 means no damage, or normal course of growth. A damage of at least 95% corresponds to very good herbicidal action. The plants used in the greenhouse experiments were of the following species: [table]

[2] = tested on: AMARE; test: greenhouse post-emergence herbicidal test; assay type: in vivo, redroot pigweed
Description: as §1

[3] = tested on: POLPE; test: greenhouse post-emergence herbicidal test; assay type: in vivo, ladysthumb
Description: as §1

[4] = tested on: PAPRH; test: greenhouse post-emergence herbicidal test; assay type: in vivo, cornpoppy; conditions: 31.3 or 62.5 g/ha (a.s.)
Description: as §1

[5] = tested on: STEME; test: greenhouse post-emergence herbicidal test; assay type: in vivo, chickweed; conditions: 31.3 or 62.5 g/ha (a.s.)
Description: as §1

[6] = tested on: THLAR; test: greenhouse post-emergence herbicidal test; assay type: in vivo, pennycress; conditions: 31.3 or 62.5 g/ha (a.s.)
Description: as §1

[7] = tested on: SETFA; test: greenhouse post-emergence herbicidal test; assay type: in vivo, giant foxtail; conditions: 125 or 250 g/ha (a.s.)
Description: as §1

[8] = tested on: ECHCG; test: greenhouse post-emergence herbicidal test; assay type: in vivo, barnyardgrass; conditions: 125 or 250 g/ha (a.s.)
Description: as §1

[9] = tested on: CHEAL; test: greenhouse post-emergence herbicidal test; assay type: in vivo, lambsquarters (goosefoot); conditions: 125 or 250 g/ha (a.s.)
Description: as §1

[10] = tested on: BIDPI; test: greenhouse post-emergence herbicidal test; assay type: in vivo, hairy beggarticks; conditions: 125 or 250 g/ha (a.s.)
Description: as §1

[11] = tested on: PHBPU; test: greenhouse post-emergence herbicidal test; assay type: in vivo, morningglory, common; conditions: 125 or 250 g/ha (a.s.)
Description: as §1

SMILES: CCn1c(=O)sc2ccc(C(=O)c3cnn(C)c3O)c(C)c21 [Example I-1a.1131]
- herbicidal action against BRAPL ([1]; 125 or 250 g/ha (a.s.)): very good herbicidal action (A damage of at least 95% corresponds to very good herbicidal action)
- herbicidal action against AMARE ([2]; 125 or 250 g/ha (a.s.)): very good herbicidal action (A damage of at least 95% corresponds to very good herbicidal action)

SMILES: Cc1c(C(=O)c2cnn(C(C)C)c2O)ccc2sc(=O)n(CC3OCCO3)c12 [Example 23]
- melting point: 54 to 58 °C

SMILES: CCCCCn1c(=O)sc2ccc(C(=O)c3cnn(C(C)C)c3O)c(C)c21 [Example 39]
- melting point: 105 to 107 °C

SMILES: C=CCn1c(=O)oc2ccc(C(=O)c3cnn(C)c3O)c(C)c21 [Example 7]
- melting point: 127 to 129 °C

SMILES: CC#CCn1c(=O)sc2ccc(C(=O)c3cnn(C(C)C)c3O)c(C)c21 [Example 21]
- melting point: 54 to 60 °C

SMILES: Cc1c(C(=O)c2cnn(C(C)C)c2OCc2ccccc2)ccc2sc(=O)n(CC3OCCO3)c12 [Example 24]
- melting point: 133 to 134 °C

SMILES: Cc1c(C(=O)c2cnn(C)c2OCc2ccccc2)ccc2sc(=O)n(Cc3ccccc3)c12 [Example 35]
- melting point: 150 to 151 °C

SMILES: CCn1c(=O)sc2ccc(C(=O)c3cnn(C(C)C)c3O)c(C)c21 [Example I-1c.1131]
- herbicidal action against BRAPL ([1]; 125 or 250 g/ha (a.s.)): very good herbicidal action (A damage of at least 95% corresponds to very good herbicidal action)
- herbicidal action against AMARE ([2]; 125 or 250 g/ha (a.s.)): very good herbicidal action (A damage of at least 95% corresponds to very good herbicidal action)

SMILES: Cc1c(C(=O)c2cnn(C)c2O)ccc2oc(=O)n(C)c12 [Example 6]
- melting point: 200 to 203 °C

SMILES: Cc1c(C(=O)c2cnn(C(C)C)c2O)ccc2sc(=O)n(C)c12 [Example I-1c.1129, 3,4-dimethyl-5-(5′-hydroxy-1′-isopropylpyrazol-4-yl)carbonylbenzothiazol-2-one]
- herbicidal action against AMARE ([2]; 31.3 or 62.5 g/ha (a.s.)): very good herbicidal action (A damage of at least 95% corresponds to very good herbicidal action)
- herbicidal action against POLPE ([3]; 31.3 or 62.5 g/ha (a.s.)): very good herbicidal action (A damage of at least 95% corresponds to very good herbicidal action)

SMILES: CCn1c(=O)sc2ccc(C(=O)c3cnn(C(C)(C)C)c3O)c(C)c21 [Example I-1d.1131]
- herbicidal action against BRAPL ([1]; 125 or 250 g/ha (a.s.)): very good herbicidal action (A damage of at least 95% corresponds to very good herbicidal action)
- herbicidal action against AMARE ([2]; 125 or 250 g/ha (a.s.)): very good herbicidal action (A damage of at least 95% corresponds to very good herbicidal action)

SMILES: Cc1c(C(=O)c2cnn(C)c2O)ccc2oc(=O)n(CC(C)C)c12 [Example 26]
- melting point: 150 to 151 °C

SMILES: CCn1ncc(C(=O)c2ccc3sc(=O)n(C)c3c2C)c1O [Example I-1b.1129, 3,4-dimethyl-5-(5′-hydroxy-1′-ethylpyrazol-4-yl)carbonylbenzothiazol-2-one]
- herbicidal action against PARPH [4]: very good herbicidal action (A damage of at least 95% corresponds to very good herbicidal action)
- herbicidal action against STEME [5]: very good herbicidal action (A damage of at least 95% corresponds to very good herbicidal action)
- herbicidal action against THLAR [6]: very good herbicidal action (A damage of at least 95% corresponds to very good herbicidal action)

SMILES: CCn1c(=O)sc2ccc(C(=O)c3cnn(C)c3OCc3ccccc3)c(C)c21 [Example I-1g.1131]
- herbicidal action against SETFA [7]: very good-herbicidal action
- herbicidal action against ECHCG [8]: very good-herbicidal action
- herbicidal action against BRAPL ([1]; 125 or 250 g/ha (a.s.)): very good-herbicidal action
- herbicidal action against CHEAL [9]: very good-herbicidal action
- herbicidal action against AMARE ([2]; 125 or 250 g/ha (a.s.)): very good-herbicidal action

SMILES: CC#CCn1c(=O)sc2ccc(C(=O)c3cnn(C)c3O)c(C)c21 [Example 20]
- melting point: 140 to 147 °C

SMILES: COc1cccc(Cn2c(=O)sc3ccc(C(=O)c4cnn(C)c4O)c(C)c32)c1 [Example 45]
- melting point: 79 to 89 °C

SMILES: CCCCn1c(=O)oc2ccc(C(=O)c3cnn(C)c3O)c(C)c21 [Example I-1a.6]
- herbicidal action against BIDPI [10]: very good herbicidal action (A damage of at least 95% corresponds to very good herbicidal action)
- herbicidal action against POLPE ([3]; 125 or 250 g/ha (a.s.)): very good herbicidal action (A damage of at least 95% corresponds to very good herbicidal action)

SMILES: Cc1c(C(=O)c2cnn(C(C)C)c2O)ccc2sc(=O)n(Cc3ccccc3)c12 [Example 17]
- melting point: 142 to 144 °C

SMILES: Cc1nn(C)c(O)c1C(=O)c1ccc2sc(=O)n(Cc3ccccc3)c2c1C [Example 18]
- melting point: 153 to 156 °C

SMILES: C=CCn1c(=O)sc2ccc(C(=O)c3cnn(C)c3O)c(C)c21 [Example 4]
- melting point: 155 to 158 °C

SMILES: CCn1c(=O)sc2ccc(C(=O)c3cnn(C(C)(C)C)c3OCc3ccccc3)c(C)c21 [Example I-1y.1131]
- herbicidal action against BRAPL ([1]; 125 or 250 g/ha (a.s.)): very good herbicidal action (A damage of at least 95% corresponds to very good herbicidal action)
- herbicidal action against PHBPU [11]: very good herbicidal action (A damage of at least 95% corresponds to very good herbicidal action)

SMILES: CCCn1c(=O)sc2ccc(C(=O)c3cnn(C)c3O)c(C)c21 [Example 15]
- melting point: 135 to 137 °C

SMILES: CCn1ncc(C(=O)c2ccc3sc(=O)n(CC)c3c2C)c1O [Example I-1b.1131]
- herbicidal action against BRAPL ([1]; 125 or 250 g/ha (a.s.)): very good herbicidal action (A damage of at least 95% corresponds to very good herbicidal action)
- herbicidal action against AMARE ([2]; 125 or 250 g/ha (a.s.)): very good herbicidal action (A damage of at least 95% corresponds to very good herbicidal action)

SMILES: CCCn1c(=O)sc2ccc(C(=O)c3c(C)nn(C)c3O)c(C)c21 [Example 28]
- melting point: 56 to 61 °C

SMILES: Cc1c(C(=O)c2cnn(C)c2O)ccc2sc(=O)n(Cc3ccccc3)c12 [Example 16]
- melting point: 65 to 71 °C

SMILES: CCCn1c(=O)oc2ccc(C(=O)c3cnn(C(C)C)c3O)c(C)c21 [Example 27]
- melting point: 104 to 105 °C

SMILES: Cc1c(C(=O)c2cnn(C)c2O)ccc2sc(=O)n(C)c12 [Example I-1a.1129, 3,4-dimethyl-5-(5′-hydroxy-1′-methyl-pyrazol-4-yl)carbonyl benzothiazol-2-one]
- herbicidal action against STEME [5]: very good herbicidal action (A damage of at least 95% corresponds to very good herbicidal action)
- herbicidal action against THLAR [6]: very good herbicidal action (A damage of at least 95% corresponds to very good herbicidal action)

SMILES: COc1cccc(Cn2c(=O)sc3ccc(C(=O)c4cnn(C(C)C)c4O)c(C)c32)c1 [Example 44]
- melting point: 71 to 74 °C

SMILES: CCCn1c(=O)oc2ccc(C(=O)c3cnn(C)c3O)c(C)c21 [Example I-1a.4]
- herbicidal action against BRAPL ([1]; 125 or 62.5 g/ha (a.s.)): very good herbicidal action (A damage of at least 95% corresponds to very good herbicidal action)
- herbicidal action against AMARE ([2]; 125 or 62.5 g/ha (a.s.)): very good herbicidal action (A damage of at least 95% corresponds to very good herbicidal action)

SMILES: CCn1ncc(C(=O)c2ccc3sc(=O)n(CC)c3c2C)c1OCc1ccccc1 [Example I-1h.1131]
- herbicidal action against BRAPL ([1]; 125 or 250 g/ha (a.s.)): very good herbicidal action (A damage of at least 95% corresponds to very good herbicidal action)
- herbicidal action against AMARE ([2]; 125 or 250 g/ha (a.s.)): very good herbicidal action (A damage of at least 95% corresponds to very good herbicidal action)

SMILES: CCn1c(=O)oc2ccc(C(=O)c3cnn(C)c3O)c(C)c21 [Example 8]
- melting point: 156 to 157 °C
